Laboratory results published in the supplement of paper PMC6045584.
± gives the standard deviation of the averaged measurements.

Compound: CN(C)C/C=C/C(=O)Nc1cc2c(Nc3ccc(F)c(Cl)c3)ncnc2cc1O[C@H]1CCOC1 [AFATINIB]
Test: surviving fraction relative to DMSO-only wells; higher = less growth inhibition
Details: exposure time: 5 days
Outline: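 Inhibitors at 0.5, 1, 5, 10, 50, 100, 500 and 1000 nM were applied continuously for five days to tumour cell lines seeded in log phase at 250–500 cells per well in 384-well plates 24 hours earlier. Viability was measured by CellTiter-Glo luminescence and expressed as surviving fraction relative to the median of DMSO-only wells. Luminescence was taken after 10 minutes at room temperature.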

Test System | surviving fraction (0.5 nM) | surviving fraction (1 nM) | surviving fraction (5 nM) | surviving fraction (10 nM) | surviving fraction (50 nM) | surviving fraction (100 nM) | surviving fraction (500 nM) | surviving fraction (1000 nM)
HCC1395 BREAST | 1.05 ± 0.14 | 1.14 ± 0.1 | 1.03 ± 0.043 | 1.13 ± 0.046 | 1.01 ± 0.15 | 1.12 ± 0.026 | 1.05 ± 0.23 | 0.92 ± 0.12
YAMATO SYNOVIAL | 1.22 ± 0.061 | 1.34 ± 0.096 | 1.32 ± 0.15 | 1.18 ± 0.0093 | 1.23 ± 0.037 | 1.27 ± 0.07 | 1.16 ± 0.035 | 0.739 ± 0.02
CAL72 BONE | 1.09 ± 0.021 | 1.02 ± 0.061 | 1.07 ± 0.018 | 1.06 ± 0.042 | 1.11 ± 0.011 | 1.1 ± 0.036 | 0.984 ± 0.031 | 0.893 ± 0.053
93VU HEADNECK | 0.895 ± 0.046 | 0.883 ± 0.053 | 0.697 ± 0.075 | 0.59 ± 0.043 | 0.469 ± 0.085 | 0.46 ± 0.049 | 0.387 ± 0.017 | 0.302 ± 0.022
MCF7 BREAST | 0.944 ± 0.025 | 0.905 ± 0.028 | 0.955 ± 0.017 | 0.942 ± 0.032 | 1.01 ± 0.035 | 1.08 ± 0.053 | 0.986 ± 0.073 | 0.953 ± 0.023
S68 BREAST | 0.958 ± 0.2 | 0.976 ± 0.33 | 0.735 ± 0.085 | 0.809 ± 0.14 | 0.656 ± 0.12 | 0.907 ± 0.14 | 0.478 ± 0.064 | 0.314 ± 0.055
HSSYII SYNOVIAL | 0.981 ± 0.053 | 0.965 ± 0.1 | 0.941 ± 0.035 | 0.984 ± 0.044 | 0.94 ± 0.024 | 0.922 ± 0.064 | 0.635 ± 0.019 | 0.379 ± 0.017
JIMT1 BREAST | 0.987 ± 0.023 | 0.994 ± 0.029 | 0.96 ± 0.015 | 0.909 ± 0.044 | 0.732 ± 0.028 | 0.687 ± 0.049 | 0.603 ± 0.012 | 0.301 ± 0.014
LM7 BONE | 1.02 ± 0.049 | 1 ± 0.14 | 1.02 ± 0.074 | 1.07 ± 0.026 | 1.02 ± 0.026 | 0.914 ± 0.091 | 0.443 ± 0.051 | 0.169 ± 0.013
RDES SOFT TISSUE | 1.33 ± 0.2 | 1.29 ± 0.15 | 1.17 ± 0.19 | 1.3 ± 0.31 | 0.988 ± 0.18 | 1.16 ± 0.19 | 1.13 ± 0.22 | 1.11 ± 0.019
MDAMB134 BREAST | 1.07 ± 0.046 | 0.997 ± 0.15 | 1.24 ± 0.25 | 0.967 ± 0.15 | 1.09 ± 0.078 | 0.886 ± 0.076 | 0.741 ± 0.031 | 0.725 ± 0.12
HOS BONE | 1.01 ± 0.027 | 1.03 ± 0.012 | 1.017 ± 0.0066 | 1.01 ± 0.016 | 1.02 ± 0.014 | 1.02 ± 0.023 | 0.979 ± 0.048 | 0.858 ± 0.025
MDAMB436 BREAST | 0.924 ± 0.014 | 0.974 ± 0.078 | 0.922 ± 0.05 | 0.905 ± 0.0097 | 0.996 ± 0.063 | 0.892 ± 0.035 | 0.763 ± 0.06 | 0.647 ± 0.029
LNCAP PROSTATE | 1.03 ± 0.093 | 0.998 ± 0.083 | 0.995 ± 0.062 | 0.922 ± 0.073 | 0.892 ± 0.11 | 1.01 ± 0.069 | 0.854 ± 0.1 | 0.649 ± 0.051
143B BONE | 1.0165 ± 0.00071 | 1.05 ± 0.011 | 1.0335 ± 0.00071 | 1.02 ± 0.014 | 1.01 ± 0.023 | 1.02 ± 0.02 | 1 ± 0.028 | 0.871 ± 0.11
HT1080 SOFT TISSUE | 0.994 ± 0.033 | 1.02 ± 0.015 | 1.037 ± 0.0045 | 0.991 ± 0.048 | 0.985 ± 0.036 | 1 ± 0.047 | 0.943 ± 0.031 | 0.729 ± 0.055
SUM149.B1*.S BREAST | 1.11 ± 0.014 | 1.11 ± 0.061 | 1.05 ± 0.02 | 1.05 ± 0.037 | 0.966 ± 0.03 | 0.972 ± 0.045 | 0.916 ± 0.022 | 0.798 ± 0.044
CAL120 BREAST | 0.955 ± 0.035 | 0.96 ± 0.0041 | 0.968 ± 0.035 | 0.928 ± 0.013 | 0.908 ± 0.032 | 0.852 ± 0.029 | 0.671 ± 0.01 | 0.471 ± 0.038
HOSMNG BONE | 0.944 ± 0.077 | 0.974 ± 0.04 | 0.98 ± 0.021 | 0.915 ± 0.11 | 1.04 ± 0.054 | 1.02 ± 0.13 | 1.06 ± 0.048 | 0.991 ± 0.088

Test System | surviving fraction (0.5 nM) | surviving fraction (1 nM) | surviving fraction (5 nM) | surviving fraction (10 nM) | surviving fraction (50 nM) | surviving fraction (100 nM) | surviving fraction (500 nM) | surviving fraction (1000 nM)
MDAMB453 BREAST | 1.08 ± 0.061 | 1 ± 0.045 | 1.05 ± 0.064 | 1.05 ± 0.029 | 0.777 ± 0.076 | 0.668 ± 0.091 | 0.576 ± 0.027 | 0.41 ± 0.026
BT549 BREAST | 1.08 ± 0.1 | 1.12 ± 0.072 | 1.11 ± 0.11 | 1.07 ± 0.2 | 0.919 ± 0.15 | 1.09 ± 0.066 | 0.696 ± 0.15 | 0.278 ± 0.082
C33A CERVIX | 0.907 ± 0.059 | 1.02 ± 0.12 | 0.909 ± 0.046 | 0.939 ± 0.085 | 0.507 ± 0.0065 | 0.417 ± 0.0072 | 0.337 ± 0.038 | 0.23 ± 0.0027
MDAMB157 BREAST | 0.993 ± 0.14 | 0.975 ± 0.048 | 0.96 ± 0.09 | 0.976 ± 0.16 | 0.979 ± 0.069 | 0.944 ± 0.12 | 0.85 ± 0.097 | 0.526 ± 0.06
NCIH441 LUNG | 1.15 ± 0.086 | 1.11 ± 0.042 | 1.1 ± 0.1 | 1.04 ± 0.04 | 1.03 ± 0.042 | 0.851 ± 0.11 | 0.686 ± 0.027 | 0.409 ± 0.017
HCC38 BREAST | 1.37 ± 0.28 | 1.23 ± 0.18 | 1.27 ± 0.074 | 1.26 ± 0.044 | 1.2 ± 0.2 | 1.17 ± 0.17 | 1 ± 0.18 | 0.749 ± 0.098
BT20 BREAST | 1.1 ± 0.22 | 1.03 ± 0.2 | 0.943 ± 0.24 | 0.922 ± 0.15 | 0.909 ± 0.17 | 0.857 ± 0.3 | 1.18 ± 0.3 | 1.28 ± 0.15
SCC90 HEADNECK | 1 ± 0.04 | 0.907 ± 0.086 | 0.621 ± 0.036 | 0.495 ± 0.028 | 0.42 ± 0.08 | 0.351 ± 0.0068 | 0.288 ± 0.011 | 0.235 ± 0.011
HCT15 LARGE INTESTINE | 1.12 ± 0.03 | 1.05 ± 0.02 | 1.04 ± 0.064 | 1.05 ± 0.027 | 1.1 ± 0.052 | 1.06 ± 0.068 | 0.97 ± 0.081 | 0.632 ± 0.063
H23 LUNG | 0.887 ± 0.035 | 0.817 ± 0.048 | 0.507 ± 0.024 | 0.42 ± 0.015 | 0.387 ± 0.018 | 0.368 ± 0.029 | 0.355 ± 0.021 | 0.288 ± 0.002
SCC47 HEADNECK | 1.05 ± 0.021 | 0.98 ± 0.078 | 0.88 ± 0.11 | 0.707 ± 0.037 | 0.629 ± 0.064 | 0.604 ± 0.034 | 0.546 ± 0.026 | 0.373 ± 0.014
SG31 HEADNECK | 0.967 ± 0.1 | 0.947 ± 0.046 | 0.62 ± 0.11 | 0.615 ± 0.18 | 0.515 ± 0.12 | 0.471 ± 0.13 | 0.528 ± 0.035 | 0.452 ± 0.054
DU4475 BREAST | 1.05 ± 0.26 | 1.08 ± 0.31 | 0.851 ± 0.034 | 1.11 ± 0.25 | 1.17 ± 0.15 | 0.997 ± 0.089 | 1.08 ± 0.25 | 0.788 ± 0.042
HCC202 BREAST | 1.12 ± 0.36 | 0.943 ± 0.36 | 0.561 ± 0.2 | 0.442 ± 0.098 | 0.253 ± 0.07 | 0.191 ± 0.048 | 0.0983 ± 0.031 | 0.0747 ± 0.0055
KPD BONE | 0.964 ± 0.051 | 0.978 ± 0.045 | 1.04 ± 0.066 | 0.976 ± 0.051 | 1.08 ± 0.06 | 0.888 ± 0.034 | 0.65 ± 0.056 | 0.354 ± 0.014
G292 BONE | 1 ± 0.064 | 0.998 ± 0.029 | 1.07 ± 0.027 | 0.995 ± 0.037 | 1.03 ± 0.02 | 0.982 ± 0.028 | 0.717 ± 0.032 | 0.447 ± 0.027
COLO320DM LARGE INTESTINE | 1.14 ± 0.075 | 1.06 ± 0.088 | 1.08 ± 0.14 | 1.06 ± 0.073 | 1.04 ± 0.083 | 1.04 ± 0.08 | 0.872 ± 0.093 | 0.634 ± 0.037
PCI30 HEADNECK | 1.01 ± 0.1 | 0.94 ± 0.073 | 0.616 ± 0.019 | 0.459 ± 0.0087 | 0.4 ± 0.022 | 0.358 ± 0.035 | 0.241 ± 0.063 | 0.064 ± 0.011
JURKAT HAEMATOPOIETIC AND LYMPHOID TISSUE | 1.07 ± 0.017 | 1.08 ± 0.025 | 1.07 ± 0.025 | 1.07 ± 0.02 | 1.03 ± 0.098 | 1.05 ± 0.023 | 0.779 ± 0.014 | 0.259 ± 0.043
